Experimental findings from paper PMC6274259, “New 3-Cyano-2-Substituted Pyridines Induce Apoptosis in MCF 7 Breast Cancer Cells” (Molecules, 2016) are described below.

The assay deals with MCF-7 cells. In words: Morphological examination of MCF-7 cells. The class given is cell-based, human. Particulars: 24 h. As to the method:
The morphological changes in MCF-7 cells were followed up after treatment with different concentrations of compound 9a (0.05, 0.1, 0.5, 2, 5 and 10 μM) for 24 h. […] Untreated cells were used as a negative control.
Morphological examination was performed as described previously; MCF-7 cells were plated on 96 well plates using 5 × 10^4 cells/well and allowed to reach 75%–85% confluence. The compounds were added to the medium, untreated cells were used as negative control, in addition to blank cells (medium) and vehicle which consist of (DMSO 0.4% + cells). After treatment, all the cells were incubated for 24 h in an atmosphere containing 5% CO2. After […] of treatment, the morphological changes of the cells were examined and photographs were taken using an inverted microscope at 400× magnification.

Each structure is given as a SMILES string.

In the case of `COc1ccc(-c2cc(-c3ccc(OC)c(OC)c3)c(C#N)c(OCC(=O)NNC(=O)c3ccccc3)n2)cc1OC` [Compound 9a, N'-[2-(3-cyano-4,6-bis(3,4-dimethoxyphenyl)pyridin-2-yloxy)acetyl]benzohydrazide], the morphological changes result is recorded as “no morphological changes were observed” (0.05, 0.1 and 0.5 μM); “apoptotic features were observed” (2, 5 and 10 μM).
